Results reported in paper PMC10436263 (2023).

Columns and labels:
Assay in all cases: X-ray crystallography
[1] = system: d(5′-CGCGAATTCGCG-3′)2 (AATT) (DNA, duplex) CGCGAATTCGCG
[2] = system: d(5′-CGCGAAAACGCG-3′/5′-CGCGTTTTCGCG-3′) (A4) (DNA, duplex) CGCGAAAACGCG/CGCGTTTTCGCG; settings: crystallization details in Table S1 (not seen); 1.55 Å
[3] = system: d(5′-CGCAAATTTGCG-3′)2 (AAATTT, A3T3) (DNA, duplex) CGCAAATTTGCG; settings: crystallization details in Table S1 (not seen); 1.54 Å
[4] = system: d(5′-CGCGATATCGCG-3′)2 (ATAT) (DNA, duplex) CGCGATATCGCG; settings: crystallization details in Table S1 (not seen); 1.63 Å
[5] = system: d(5′-GCTGGATATATCCAGC-3′)2 (ATATAT) (DNA, duplex) GCTGGATATATCCAGC; settings: 600 mM CaCl2; 10 mM HEPES pH 8.6, 40% PEG200 (well); 1.50 Å
[6] = system: d(5′-CGCAAAAAAGCG-3′/5′-CGCTTTTTTGCG-3′) (A6) (DNA, duplex) CGCAAAAAAGCG/CGCTTTTTTGCG; settings: crystallization details in Table S1 (not seen); two orientations (8F1S, 8F1V); 2.1 Å

binding ([1]; crystallization details in Table S1 (not seen))	binding ([1]; 20 mM MgCl2, 80 mM NaCl, 12 mM KCl, 40 mM sodium cacodylate pH 6.0, 12 mM spermine, 10% MPD, two orientations (8EC1 I, 8ED6 II))	binding [2]	binding [3]	binding [4]	binding [5]	binding [6]	Compound
yes							N=C(N)c1ccc(-c2ccc3cc(-c4ccc(C(=N)N)cc4)[nH]c3c2)cc1
	yes	yes	yes	yes	yes	yes	N=C(N)c1ccc(-c2ccc3nc(-c4ccc(C(=N)N)cc4)[nH]c3c2)cc1
